The text below walks through data of EP0952771B1, “NOVEL SAPONIN COMPOSITIONS AND USES THEREOF” (priority 1996, dated 1998).

One data set deals with E.G7-OVA target cells. The data set can be described thus: Cytotoxic T lymphocyte (CTL) 51Cr cytotoxicity assay with splenic mononuclear cells of immunized mice. The format is in vivo, C57BL/6 mice. The note with it: subcutaneously at week 1, 3 and 5. As for the experimental part: (§1) All experiments were carried out in C57BL/6 mice (female, 8-12 weeks of age). The synergistic adjuvant-effect of the QS-21/QS-7 mixtures was assessed by two parameters: (1) the ability of these mixtures to improve antibody titers to a subunit antigen, ovalbumin, in mice; and (2) the ability of these mixtures to improve an ovalbumin-specific cytotoxic T lymphocyte (killer cell) response in mice.
The experimental techniques were the following. The mice were immunized subcutaneously at week 1, 3, and 5 with 0.2 ml of the indicated formulations in phosphate-buffered saline. Mice were immunized in groups of five. Sera and spleens were harvested at weeks 7 to 9. Sera was assayed for anti-ovalbumin antibody response by enzyme immunoassay. Briefly, a 96 well Immulon plate was coated with 10 µg/ml ovalbumin in phosphate-buffered saline (PBS) overnight at 4°C. These plates were blocked with 10% normal goat serum in PBS (diluent) for one hour at room temperature. Serial 1:10 dilutions of serum were made in diluent and were incubated on the plates for one hour at room temperature or overnight at 4°C. An enzyme conjugate of anti-mouse IgG (or anti-mouse IgG subclass) was diluted in diluent and incubated on the plate. A colorimetric enzyme substrate, tetramethylbenzidine, was used to assay for binding of anti-ovalbumin antibody. Spleens from immunized mice were used to assay for the cytotoxic T lymphocyte (CTL) response. The effector cells for the (CTL) assay were splenic mononuclear cells from the harvested spleens. The antigen-positive target cells for the assay were E.G7-OVA cells, which are an MHC class II antigen-negative EL4 mouse cell line, transfected with the ovalbumin gene. […] EL4 cells were used as an ovalbumin-negative target cell line. Prior to assay, splenic mononuclear cells were stimulated with antigen to induce maturation of precursor CTL in the effector cell population. The antigens used for stimulation were mitomycin C treated E.G7-OVA cells (incubated with spleen cells at a ratio of 20:1 spleen cells: E.G7-OVA cells) or denatured ovalbumin (25 µg/ml). […]

The test system of the next data set is anti-ovalbumin antibody. In words: Anti-ovalbumin antibody response in serum by enzyme immunoassay. It counts as in vivo, C57BL/6 mice. The settings on record: 0.625 µg given individually; titer not higher than no adjuvant. As for the experimental part:
as §1
The experimental techniques were the following. The mice were immunized subcutaneously at week 1, 3, and 5 with 0.2 ml of the indicated formulations in phosphate-buffered saline. Mice were immunized in groups of five. Sera and spleens were harvested at weeks 7 to 9. Sera was assayed for anti-ovalbumin antibody response by enzyme immunoassay. Briefly, a 96 well Immulon plate was coated with 10 µg/ml ovalbumin in phosphate-buffered saline (PBS) overnight at 4°C. These plates were blocked with 10% normal goat serum in PBS (diluent) for one hour at room temperature. Serial 1:10 dilutions of serum were made in diluent and were incubated on the plates for one hour at room temperature or overnight at 4°C. An enzyme conjugate of anti-mouse IgG (or anti-mouse IgG subclass) was diluted in diluent and incubated on the plate. A colorimetric enzyme substrate, tetramethylbenzidine, was used to assay for binding of anti-ovalbumin antibody. […]

The next data set concerns ovalbumin antigen. The note with it: doses below 2.5 µg; cited from earlier work.
Another data set relates to ovalbumin. The settings on record: at 2.5 µg or lower; cited from earlier work.
A further data set concerns mice. The note with it: mouse, in vivo; cited from earlier work.

On to QS-21, for which the “stimulating a CTL response” value with E.G7-OVA target cells (saponin dose 0.625 µg given alone with ovalbumin) is on record as “ineffective”; in the data set on E.G7-OVA target cells (saponin dose 1.25 µg given alone with ovalbumin), “ineffective”; with E.G7-OVA target cells (saponin dose 20 µg given alone with ovalbumin) it was “highly effective”. Moreover, the “titer compared with no adjuvant” value in the data set with anti-ovalbumin antibody is reported as “suboptimal”. Further, the “adjuvant for raising an antibody response to the ovalbumin antigen” value in the data set on ovalbumin antigen is recorded as “ineffective”. The “cytotoxic T lymphocyte (CTL) response to ovalbumin” value with ovalbumin is on record as “minimal”. In addition, the toxicity in mice result in the data set on mice is recorded as “least toxic”.
